Where a SMILES comes first, the peptide text is derived from it.
Tested on: drug-resistant Mycobacterium tuberculosis
Settings: peptide 10 micrograms per ml, seven days

SMILES: CC(C)C[C@H](NC(=O)[C@@H]1CCCN1)C(=O)NCC(N)=O [MSHRIF, Pro-Leu-Gly-NH2] (H-Pro-Leu-Gly-NH2)
- % inhibition: 0.0%

From patent US20100190724A1, “USE OF MELANOCYTE-STIMULATING HORMONE RELEASE-INHIBITING FACTOR AS A THERAPEUTIC AGENT IN THE TREATMENT OF PSEUDOMONAS AERUGINOSA INFECTION” (priority 2007, published 2010)
